# Laboratory results: ChEMBL document CHEMBL3885861, “Open TG-GATES”
# Species on record: Rattus norvegicus
# Assay: Open TG-GATES - Regimen: Daily Repeat
# Assay type: toxicity, organism-based, Sprague-Dawley
# Design: regimen Daily Repeat, gender Male, age 6 weeks
# Details: in vivo, po, 300 mg/kg, route gavage, dose level High; for Bas / Eos / Fbg / Hb / Ht / Lym / MCH / MCV / Mono / Neu / PT / Plat / RBC / Ret / WBC / APTT: tissue Blood; for KIDNEY_L / KIDNEY_R / KIDNEY_TOTAL: tissue Kidney; for LIVER: tissue Liver; for ALP / ALT / AST / BUN / CRE / Ca / Cl / DBIL / GLC / IP / K / LDH / Na / PL / RALB / TBIL / TC / TP / gamma-GTP: tissue Plasma
smiles,measurement,setting,value
NC(=O)N1c2ccccc2C=Cc2ccccc21 [CARBAMAZEPINE],Bas,"72 h, time 3 day",0%
same,Eos,"72 h, time 3 day",1.2%
same,Fbg,"72 h, time 3 day",203 mg/dL
same,Hb,"72 h, time 3 day",13.7 g/dL
same,Ht,"72 h, time 3 day",40.1%
same,Lym,"72 h, time 3 day",83.6%
same,MCH,"72 h, time 3 day",20.9 pg
same,MCV,"72 h, time 3 day",61 fL
same,Mono,"72 h, time 3 day",2.6%
same,Neu,"72 h, time 3 day",11.4%
same,PT,"72 h, time 3 day",11.8 s
same,Plat,"72 h, time 3 day",131.3 x10_4/uL
same,RBC,"72 h, time 3 day",657.8 x10_4/ul
same,Ret,"72 h, time 3 day",3.6%
same,WBC,"72 h, time 3 day",92.4 x10_2/uL
same,KIDNEY_L,"72 h, time 3 day",1.1 g
same,KIDNEY_R,"72 h, time 3 day",1 g
same,KIDNEY_TOTAL,"72 h, time 3 day",2.1 g
same,LIVER,"72 h, time 3 day",13.1 g
same,ALP,"72 h, time 3 day",978.4 IU/L
same,ALT,"72 h, time 3 day",40.2 IU/L
same,AST,"72 h, time 3 day",57.2 IU/L
same,BUN,"72 h, time 3 day",14 mg/dL
same,CRE,"72 h, time 3 day",0.4 mg/dL
same,Ca,"72 h, time 3 day",10.9 mg/dL
same,Cl,"72 h, time 3 day",103.2 meq/L
same,DBIL,"72 h, time 3 day",0.08 mg/dL
same,GLC,"72 h, time 3 day",199.4 mg/dL
same,IP,"72 h, time 3 day",6.8 mg/dL
same,K,"72 h, time 3 day",3.4 meq/L
same,LDH,"72 h, time 3 day",217.4 IU/L
same,Na,"72 h, time 3 day",140.6 meq/L
same,PL,"72 h, time 3 day",150.4 mg/dL
same,RALB,"72 h, time 3 day",3.4 g/dL
same,TBIL,"72 h, time 3 day",0.1 mg/dL
same,TC,"72 h, time 3 day",79.2 mg/dL
same,TP,"72 h, time 3 day",5.6 g/dL
same,gamma-GTP,"72 h, time 3 day",1.2 IU/L
same,TERMINAL_BW,"[…], time 7 day",253.9 g
same,TERMINAL_BW,"[…], time 14 day",309.3 g
same,TERMINAL_BW,"[…], time 28 day",374.6 g
same,APTT,"[…], time 7 day",21.5 s
same,Bas,"[…], time 7 day",0%
same,Eos,"[…], time 7 day",0.6%
same,Fbg,"[…], time 7 day",224.6 mg/dL
same,Hb,"[…], time 7 day",13.1 g/dL
same,Ht,"[…], time 7 day",38.8%
same,Lym,"[…], time 7 day",79.8%
same,MCH,"[…], time 7 day",20.5 pg
same,MCV,"[…], time 7 day",60.5 fL
same,Mono,"[…], time 7 day",2.4%
same,Neu,"[…], time 7 day",15.8%
same,PT,"[…], time 7 day",11.9 s
same,Plat,"[…], time 7 day",130.9 x10_4/uL
same,RBC,"[…], time 7 day",641.2 x10_4/ul
same,Ret,"[…], time 7 day",4.1%
same,WBC,"[…], time 7 day",127.4 x10_2/uL
same,APTT,"[…], time 14 day",22.3 s
same,Bas,"[…], time 14 day",0%
same,Eos,"[…], time 14 day",0.4%
same,Fbg,"[…], time 14 day",209.2 mg/dL
same,Hb,"[…], time 14 day",14.2 g/dL
same,Ht,"[…], time 14 day",41.2%
same,Lym,"[…], time 14 day",82.2%
same,MCH,"[…], time 14 day",20.6 pg
same,MCV,"[…], time 14 day",59.8 fL
same,Mono,"[…], time 14 day",2.4%
same,Neu,"[…], time 14 day",13.6%
same,PT,"[…], time 14 day",12.2 s
same,Plat,"[…], time 14 day",128.7 x10_4/uL
same,RBC,"[…], time 14 day",689.4 x10_4/ul
same,Ret,"[…], time 14 day",4.7%
same,WBC,"[…], time 14 day",149.2 x10_2/uL
same,APTT,"[…], time 28 day",22.9 s
same,Bas,"[…], time 28 day",0%
same,Eos,"[…], time 28 day",1%
same,Fbg,"[…], time 28 day",225.4 mg/dL
same,Hb,"[…], time 28 day",15.2 g/dL
same,Ht,"[…], time 28 day",43.4%
same,Lym,"[…], time 28 day",87.2%
same,MCH,"[…], time 28 day",19.6 pg
same,MCV,"[…], time 28 day",56 fL
same,Mono,"[…], time 28 day",2.2%
same,Neu,"[…], time 28 day",8.8%
same,PT,"[…], time 28 day",12.2 s
same,Plat,"[…], time 28 day",106.2 x10_4/uL
same,RBC,"[…], time 28 day",776.2 x10_4/ul
same,Ret,"[…], time 28 day",2.1%
same,WBC,"[…], time 28 day",142.7 x10_2/uL
same,KIDNEY_L,"[…], time 7 day",1.2 g
same,KIDNEY_R,"[…], time 7 day",1.1 g
same,KIDNEY_TOTAL,"[…], time 7 day",2.3 g
same,KIDNEY_L,"[…], time 14 day",1.3 g
same,KIDNEY_R,"[…], time 14 day",1.3 g
same,KIDNEY_TOTAL,"[…], time 14 day",2.7 g
same,KIDNEY_L,"[…], time 28 day",1.4 g
same,KIDNEY_R,"[…], time 28 day",1.4 g
same,KIDNEY_TOTAL,"[…], time 28 day",2.8 g
same,LIVER,"[…], time 7 day",14.2 g
same,LIVER,"[…], time 14 day",17.8 g
same,LIVER,"[…], time 28 day",19.5 g
same,ALP,"[…], time 7 day",803.4 IU/L
same,ALT,"[…], time 7 day",41.6 IU/L
same,AST,"[…], time 7 day",64.8 IU/L
same,BUN,"[…], time 7 day",15.4 mg/dL
same,CRE,"[…], time 7 day",0.4 mg/dL
same,Ca,"[…], time 7 day",10.7 mg/dL
same,Cl,"[…], time 7 day",101.8 meq/L
same,DBIL,"[…], time 7 day",0.098 mg/dL
same,GLC,"[…], time 7 day",212.6 mg/dL
same,IP,"[…], time 7 day",7 mg/dL
same,K,"[…], time 7 day",3.9 meq/L
same,LDH,"[…], time 7 day",261.2 IU/L
same,Na,"[…], time 7 day",139.6 meq/L
same,PL,"[…], time 7 day",174.4 mg/dL
same,RALB,"[…], time 7 day",3.6 g/dL
same,TBIL,"[…], time 7 day",0.1 mg/dL
same,TC,"[…], time 7 day",91.2 mg/dL
same,TP,"[…], time 7 day",6.1 g/dL
same,gamma-GTP,"[…], time 7 day",1.4 IU/L
same,ALP,"[…], time 14 day",774.4 IU/L
same,ALT,"[…], time 14 day",38.6 IU/L
same,AST,"[…], time 14 day",62.8 IU/L
same,BUN,"[…], time 14 day",17.5 mg/dL
same,CRE,"[…], time 14 day",0.5 mg/dL
same,Ca,"[…], time 14 day",11 mg/dL
same,Cl,"[…], time 14 day",101 meq/L
same,DBIL,"[…], time 14 day",0.1 mg/dL
same,GLC,"[…], time 14 day",193.4 mg/dL
same,IP,"[…], time 14 day",7.2 mg/dL
same,K,"[…], time 14 day",3.9 meq/L
same,LDH,"[…], time 14 day",192 IU/L
same,Na,"[…], time 14 day",140.8 meq/L
same,PL,"[…], time 14 day",170.4 mg/dL
same,RALB,"[…], time 14 day",3.5 g/dL
same,TBIL,"[…], time 14 day",0.2 mg/dL
same,TC,"[…], time 14 day",89 mg/dL
same,TP,"[…], time 14 day",6.4 g/dL
same,gamma-GTP,"[…], time 14 day",0.6 IU/L
same,ALP,"[…], time 28 day",555 IU/L
same,ALT,"[…], time 28 day",39.8 IU/L
same,AST,"[…], time 28 day",55 IU/L
same,BUN,"[…], time 28 day",20.4 mg/dL
same,CRE,"[…], time 28 day",0.5 mg/dL
same,Ca,"[…], time 28 day",10.6 mg/dL
same,Cl,"[…], time 28 day",101.4 meq/L
same,DBIL,"[…], time 28 day",0.09 mg/dL
same,GLC,"[…], time 28 day",226 mg/dL
same,IP,"[…], time 28 day",6.4 mg/dL
same,K,"[…], time 28 day",3.6 meq/L
same,LDH,"[…], time 28 day",218.2 IU/L
same,Na,"[…], time 28 day",140.6 meq/L
same,PL,"[…], time 28 day",180.8 mg/dL
same,RALB,"[…], time 28 day",3.7 g/dL
same,TBIL,"[…], time 28 day",0.1 mg/dL
same,TC,"[…], time 28 day",93.8 mg/dL
same,TP,"[…], time 28 day",6.5 g/dL
same,gamma-GTP,"[…], time 28 day",1.2 IU/L
